From ChEMBL document CHEMBL4052750, “Structure-based optimization and synthesis of antiviral drug Arbidol analogues with significantly improved affinity to influenza hemagglutinin” (Bioorg Med Chem Lett, 2017)

Tests used:
[1] = Binding affinity to Influenza A virus (A/Hong Kong/1/1968(H3N2)) […] by biolayer interferometry analysis
[2] = Binding affinity to Influenza A virus (A/Puerto Rico/8/1934(H1N1)) PR8 hemagglutinin-1 by biolayer interferometry analysis
[3] = tested on: Influenza A virus (A/Hong Kong/1/1968(H3N2)); test: Binding affinity to Influenza A virus (A/Hong Kong/1/1968(H3N2)) […] assessed as dissociation constant after 180 secs by biolayer interferometry analysis
[4] = tested on: Influenza A virus (A/Hong Kong/1/1968(H3N2)); test: Binding affinity to Influenza A virus (A/Hong Kong/1/1968(H3N2)) […] assessed as association constant after 180 secs by biolayer interferometry analysis
[5] = tested on: Influenza A virus (A/Puerto Rico/8/1934(H1N1)); test: Binding affinity to Influenza A virus (A/Puerto Rico/8/1934(H1N1)) PR8 hemagglutinin-1 assessed as dissociation constant after 180 secs by biolayer interferometry analysis
[6] = tested on: Influenza A virus (A/Puerto Rico/8/1934(H1N1)); test: Binding affinity to Influenza A virus (A/Puerto Rico/8/1934(H1N1)) PR8 hemagglutinin-1 assessed as association constant after 180 secs by biolayer interferometry analysis
[7] = tested on: Influenza A virus (A/Puerto Rico/8/1934(H1N1)); test: Potency index, ratio of Kd for Arbidol to Kd for test compound for binding affinity to Influenza A virus (A/Puerto Rico/8/1934(H1N1)) PR8 hemagglutinin-1 by biolayer interferometry analysis
[8] = tested on: Influenza A virus (A/Hong Kong/1/1968(H3N2)); test: Potency index, ratio of Kd for Arbidol to Kd for test compound for binding affinity to Influenza A virus (A/Hong Kong/1/1968(H3N2)) […] by biolayer interferometry analysis

CCOC(=O)c1c(CSc2cccc(N)c2)n(C)c2cc(Br)c(O)c(CN(C)C)c12
Kd ([1]; read-out: Kd): 7.4 µM
Kd [2]: Not Active

CCOC(=O)c1c(CSc2ccc3ccccc3c2)n(C)c2cc(Br)c(O)cc12
Kd ([1]; read-out: Kd): 45 µM
Kd ([2]; read-out: Kd): 18 µM

CCOC(=O)c1c(CSc2cccc(N)c2)n(C)c2cc(Br)c(O)cc12
Kd ([1]; read-out: Kd): > 100 µM
Kd [2]: Not Active

CCOC(=O)c1c(CSc2ccccc2)n(C)c2cc(Br)c(O)c(CN3CCN(C(=O)OC(C)(C)C)CC3)c12
Kd [1]: Not Active
Kd ([2]; read-out: Kd): 41 µM

CCOC(=O)c1c(CSc2ccccc2)n(C)c2cc(Br)c(O)cc12
Kd ([1]; read-out: Kd): 11 µM
Kd ([2]; read-out: Kd): 38 µM

CCOC(=O)c1c(CSc2cccc(O)c2)n(C)c2cc(Br)c(O)cc12
Kd ([1]; read-out: Kd): 17 µM
Kd ([2]; read-out: Kd): 75 µM

CCOC(=O)c1c(CSc2ccc3ccccc3c2)n(C)c2cc(Br)c(O)c(CN(C)C)c12
Kd [1]: Not Active
Kd [2]: Not Active

CCOC(=O)c1c(CSc2ccccc2)n(C)c2cc(Br)c(O)c(CN(C)C)c12 [UMIFENOVIR]
K [3]: 2.8 ×10⁻² /s
K [4]: 2.3 ×10² /M/s
K [5]: 4.8 ×10⁻² /s
K [6]: 1 ×10³ /M/s
Kd ([1]; read-out: Kd): 92 µM
Kd ([2]; read-out: Kd): 47 µM

CCOC(=O)c1c(CSc2cccc(O)c2)n(C)c2cc(Br)c(O)c(CN(C)C)c12
K [3]: 1.93 ×10⁻² /s
K [4]: 2.41 ×10⁵ /M/s
K [5]: 3.42 ×10⁻² /s
K [6]: 7.06 ×10⁴ /M/s
Kd ([2]; read-out: Kd): 0.48 to 0.55 µM
Ratio [7]: 98
Ratio [8]: 1150

CCOC(=O)c1c(CSc2ccccc2)n(C)c2cc(Br)c(O)c(CN3CCN(CCO)CC3)c12
Kd ([1]; read-out: Kd): 46 µM
Kd [2]: Not Active
